Assay results from PubChem BioAssay (NCI).
Values joined by “and” are separate entries in the source; they are usually repeats but may differ in a detail not shown here. Equal entries are not always repeated.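 1) Cells in 96-well plates. 2) Compound, 48 h, 5 concentrations. 3) Linear interpolation between surrounding doses. 4) Unreached endpoint = highest concentration. Abbreviation: GI50, concentration required for 50% inhibition of growth. TGI marks complete inhibition of growth.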

What was measured:
Experiment in all cases: growth of human tumour cells (NCI), 48 h
[1] = tested on: NCI-H522 lung
[2] = tested on: EKVX NSCLC
[3] = tested on: DU-145 prostate
[4] = tested on: TK-10 renal
[5] = tested on: HS 578T breast
[6] = tested on: CAKI-1 renal
[7] = tested on: SK-MEL-28 melanoma
[8] = tested on: HOP-62 NSCLC
[9] = tested on: IGROV1 ovarian
[10] = tested on: UACC-257 melanoma

| Compound | TGI [1] [µM] | TGI [2] [µM] | TGI [3] | TGI [4] | TGI [5] | TGI [6] [µM] | TGI [7] [µM] | TGI [8] [µM] | TGI [9] | TGI [10] [µM] | GI50 [1] [µM] | GI50 [2] [µM] | GI50 [3] | GI50 [4] | GI50 [5] | GI50 [6] [µM] | GI50 [7] [µM] | GI50 [8] [µM] | GI50 [9] | GI50 [10] [µM] |
| --- | --- | --- | --- | --- | --- | --- | --- | --- | --- | --- | --- | --- | --- | --- | --- | --- | --- | --- | --- | --- |
| C/C=C/C/C=C/CCC(=O)C1OC1C(N)=O (stereo unspecified) | 25.8 | 36.4 | 31.3 µM | 25.9 µM | 76.2 µM | 29.8 | 30.6 | 15.8 | 31.8 µM | 31.1 |  |  |  |  |  |  |  |  |  |  |
| O=C1CN2CCC1C/C2=C\c1ccnc2c(Cl)cccc12 (stereo unspecified) | > 100 | > 100 | > 100 µM | > 100 µM | > 100 µM | > 100 | > 100 | > 100 | > 100 µM | > 100 | 53.5 | 33 | > 100 µM | > 100 µM | > 100 µM | 21 | > 100 | > 100 | 34 µM | 59.7 |
| COc1ccc(/C(Cl)=C(\C=O)c2cc(OC)c(OC)c(OC)c2)cc1OC | 48.8 | > 100 | > 100 µM | > 100 µM | > 100 µM | > 100 | > 100 | > 100 | > 100 µM | > 100 |  |  |  |  |  |  |  |  |  |  |
| Cc1cc(Nc2ncc(Cl)c(Nc3ccccc3S(=O)(=O)C(C)C)n2)c(OC(C)C)cc1C1CCNCC1 | 3.06 | 2.71 | 2.79 µM and 2.88 µM and 2.55 µM | 2.76 µM and 2.61 µM | 5.25 µM and 5.34 µM and 4.48 µM | 5.29 | 2.47 | 2.75 | 3.37 µM and 2.36 µM | 2.81 | 1.52 | 1.14 | 1.41 µM and 1.53 µM and 1.29 µM | 1.42 µM and 1.33 µM | 1.66 µM and 1.94 µM and 1.61 µM | 1.87 | 1.22 | 1.4 | 1.56 µM and 1.12 µM | 1.24 |
| O=C1NC(=O)[C@H]2C3C=CC([C@@H]12)[C@@H]1C(=O)NC(=O)[C@H]31 | > 100 | > 100 | > 100 µM | > 100 µM | > 100 µM | > 100 | > 100 | > 100 | > 100 µM | > 100 |  |  |  |  |  |  |  |  |  |  |
| N#C/C(=C\c1ccc(Cl)cc1)n1nnc2cc(F)c(F)cc21 | 3.85 | 3.12 | 3.11 µM |  | 8.49 µM | 3.2 | 4.38 | 6.32 | 4.46 µM | 5.58 | 1.59 | 1.67 | 1.69 µM |  | 2.76 µM | 1.7 | 2.04 | 2.29 | 1.97 µM | 2.14 |
| CN1CCN(Cc2ccc(NC(=O)c3[nH]ncc3Nc3ccnc4ccsc34)cc2)CC1 | 13.5 | 9.81 | 11.6 µM | 23.1 µM | 14.4 µM | 27.6 | 18.4 | 14.2 | 16.7 µM | 30 | 1.98 | 2.74 | 2.17 µM | 4.97 µM | 2.09 µM | 6.04 | 5.23 | 2.82 | 2.82 µM | 11.6 |
| C=C1C(=O)O[C@H]2[C@H]1CC/C(COC(=O)NCCc1c[nH]c3ccccc13)=C\CC[C@@]1(C)O[C@@H]21 | 2.84 | 3.57 | 2.68 µM | 3.55 µM | 38.4 µM |  | 3.11 | 19.8 | 2.9 µM | 4.83 | 1.26 | 1.51 | 1.19 µM | 1.92 µM | 10.3 µM |  | 1.38 | 5.25 | 1.09 µM | 2 |
| CC1(C)CC2=NOS3=C2C(=NO3)C1c1ccccn1 (stereo unspecified) | 90.2 | > 100 | > 100 µM | > 100 µM | > 100 µM | > 100 | > 100 | > 100 | 84.5 µM | > 100 |  |  |  |  |  |  |  |  |  |  |
| Cn1c(Cc2ccccc2)nc2cc3ccccc3cc21 | > 100 | 52.5 | 66.7 µM | > 100 µM | 57.7 µM | > 100 | > 100 | > 100 | > 100 µM | 61.9 | 34.5 | 22.2 | 26.4 µM | 47.9 µM | 22.2 µM | 35.5 | 37.9 | 38.3 | 25.5 µM | 26.8 |
| COc1ccc(C(=O)c2ccc(OC)cc2OC)cc1 | 4.38 | > 100 | 25.6 µM | > 100 µM | 31.4 µM | > 100 | > 100 | > 100 | 40.9 µM | > 100 | 1.06 | 7.17 | 3.52 µM | 5.01 µM | 3.5 µM | 3.75 | 4.05 | 2.6 | 2.61 µM | 5 |
| COc1cc(C(=O)O)ccc1NC(=O)[C@@H]1N[C@@H](CC(C)(C)C)[C@](C#N)(c2ccc(Cl)cc2F)[C@H]1c1cccc(Cl)c1F | 10.8 | 24 | 30.4 µM | 21.2 µM | 15.8 µM | 7.01 | 7.59 | 17.4 | 17.3 µM | 1.83 | 2.72 | 6.51 | 5.24 µM | 5.28 µM | 3.9 µM | 0.1 | 2.56 | 6.04 | 2.21 µM | 0.145 |
| C[C@]12CC[C@@H]3c4ccc(OCC(=O)O)cc4CC[C@H]3[C@@H]1CCC2=O | > 100 | > 100 | > 100 µM | > 100 µM | > 100 µM | > 100 | > 100 | > 100 | > 100 µM | > 100 |  |  |  |  |  |  |  |  |  |  |
| C=C1C(=O)O[C@H]2[C@H]1CC/C(Cn1cc(Cn3ccc4cc(Cl)ccc43)nn1)=C\CC[C@@]1(C)O[C@@H]21 | 2.87 | 3.78 | 2.89 µM | 3.11 µM | 6.68 µM | 2.5 | 3.27 | 20.1 | 2.9 µM | 3.61 | 1.26 | 1.73 | 1.55 µM | 1.67 µM | 2.5 µM | 1.24 | 1.73 | 4.9 | 1.42 µM | 1.7 |
